Assays:
Med1-MB cells = assay: Med1-MB tumor cell proliferation, Trypan Blue exclusion count; format: cell-based, mouse; set-up: key to Growth Inhibition (relative inhibitory activity): *** strong; ** middle; * weak; settings: for Growth Inhibition (relative inhibitory activity): 72 h treatment
Description: Med1-MB cells (a mouse medulloblastoma cell line kindly provided by Dr Yoon-Jae Cho, Stanford, CA USA and disclosed in Hayden Gephart et al. Journal of Neuro-Oncology (2013) volume 115, pages 161-168) were maintained in DMEM supplemented with 10% FBS and 100 units of penicillin/streptomycin.
Med1-MB cells were cultured in Dulbecco's modified Eagle medium (DMEM) supplemented with 10% FBS, 1 mM penicillin-streptomycin and 1 mM glutamine in a humidified incubator at 37° C. and 5% CO2. […] After 72 hours, cells were trypsinized and counted by trypan blue exclusion method.
To evaluate the effect on tumor growth of compound IPI/01.LF, and derivatives, 1×10^4 Med1-MB cells were seeded in 12-well plate and incubated overnight at 37° C. in a humidified incubator. After 24 h, cells were treated with increasing concentrations of compounds for 72 h. At the end of the experiment, cell proliferation was assayed by Trypan Blue exclusion method. IC50 values were determined by generating a dose-response curves by non-linear regression. Data are expressed as the mean±SD of three independent experiments, each performed in triplicate.

LDHA enzyme = assay: LDHA enzymatic activity assay: rate of NADH consumption after pyruvate addition, spectrophotometry at 340 nm, in Med1-MB cell supernatant; format: biochemical, mouse; set-up: key to LDH Inhibition (relative inhibitory activity): *** strong; ** middle; * weak; settings: dose of 100 μM
Description: To evaluate whether the observed anti-proliferative effect of IPI/01.LF and derivatives was a specific consequence of the inhibitory activity on the LDHA enzyme, the inventor performed enzymatic activity assays measuring the rate of NADH consumption following the addition of pyruvate by spectrophotometry at […], as previously described [Miskimins W K, Ahn H J, Kim J Y, Ryu S, Jung Y S, Choi J Y. Synergistic anti-cancer effect of phenformin and oxamate. PLoS One. 2014; 9(1):e85576.].
1×10^5 Med1-MB cells were harvested, suspended in 0.1M KH2PO4 (pH 7.2), 2 mM EDTA and 1 mM dithiothreitol (DTT), sonicated in 300 μL assay buffer (50 mmol/L potassium phosphate, pH 7.4), and centrifuged at 10,000 g for 10 minutes at 4° C. The supernatant was added to 50 mM potassium phosphate (pH 7.4), 2 mM pyruvate, and 20 µM NADH. Absorbance was measured over 10 minutes at 340 nm using a spectrophotometer.

Panc1 cells = assay: Panc1 pancreatic tumor cell proliferation, Trypan Blue exclusion; format: cell-based, human
Excerpt: The inventor tested compound #1-IPI/01.LF on the proliferation of human pancreatic ductal adenocarcinoma (PDAC) Panc1 cells (American Tissue Cell Culture (ATCC, Manassas, VA, USA); product code: ATCC® CRL-1469™) a human tumor cell line showing a high glycolytic rate (Liu L, Gong L, Zhang Y, Li N. Glycolysis in Panc-1 human pancreatic cancer cells is inhibited by everolimus Experimental and therapeutic medicine (2013) 5: 338-342).
PANC-1 cells were maintained in DMEM supplemented with 10% FBS and 100 units of penicillin/streptomycin. After 72 h, cell proliferation was assayed by Trypan Blue exclusion method. IC50 value was determined by generating a dose-response curves by non-linear regression. Data are expressed as the mean±SD of three independent experiments, each performed in triplicate.

Panc1 tumor xenograft = assay: Panc1 luciferase xenograft in immunodeficient nude (nu/nu) mice: caliper tumor volume, luminescence, body weight; format: in vivo, mouse; settings: for tumor growth in treated mice: 20 mg/Kg in corn oil, intraperitoneally every two days, vs vehicle
Description: To evaluate the in vivo therapeutic effects of compound IPI/01.LF studies on immunodeficient nude (nu/nu) mouse models xenografted with the human pancreatic tumor cells Panc1 were performed.
Panc1 cells were stably transduced with 5 MOI of a lentivirus expressing the luciferase gene (pLenti CMV Puro LUC (w168-1)). The lentiviral vector was purchased from Addgene, Watertown, MA 02472 USA (plasmid #17477); Campeau E, et al A versatile viral system for expression and depletion of proteins in mammalian cells PLoS One (2009) 4(8):e6529.
Stably transduced Panc1 cells were subcutaneously implanted in immunocompromised Balb/C nude athymic mice. When the tumors reached the volume of 200 mm^3, mice were treated with either 20 mg/kg of compound IPI/01.LF dissolved in corn oil or with corn oil (vehicle) alone and injected intraperitoneally every two days. Tumor growth was monitored with a caliper every other day. Data are expressed as the mean±SD of three independent experiments, each performed in triplicate.
Since the grafted Panc1 tumor cells express the ectopic luciferase reporter gene, tumor luminescence was used to monitor the tumor growth. Luminescence was measured using IVIS Lumina III In Vivo Imaging System (PerkinElmer).
Mice were intraperitoneally injected with luciferin (RediJect D-Luciferin Bioluminescent Substrate, PerkinElmer) and analyzed by photon emission (bioluminescence).
L of luciferin (15 mg/mL stock)/gram of mouse body weight were injected in the lower left abdominal quadrant of xenografted Balb/C mice with a 25 gauge needle. After 10 minutes, animals were anesthetized with a mixture of oxygen gas and vaporized isoflurane. Once the animals were fully anesthetized, they were positioned within the animal imaging cassette for image acquisition. Data were analyzed utilizing the LivingImage software. Image acquisition was performed at the beginning (T=0) and at the end (T=17) of the experiment and body weights (g) of mice at time of sacrifice were determined.

O=C(Nc1ccccc1Cl)c1c[nH]c(=O)n(Cc2ccccc2)c1=O [#4, 2,4-Dioxo-3-benzyl-N-(2-chlorophenyl)-1,2,3,4-tetrahydropyrimidine-5-carboxamide]
Growth Inhibition (relative inhibitory activity) (Med1-MB cells): *** | LDH Inhibition (relative inhibitory activity) (LDHA enzyme): ***

NC(=O)c1ccc(NC(=O)c2c[nH]c(=O)n(Cc3ccccc3)c2=O)cc1 [#6, 2,4-Dioxo-3-benzyl-N-(4-carboxamidophenyl)-1,2,3,4-tetrahydropyrimidine-5-carboxamide]
Growth Inhibition (relative inhibitory activity) (Med1-MB cells): *** | LDH Inhibition (relative inhibitory activity) (LDHA enzyme): ***

COc1ccc(Cn2c(=O)[nH]cc(C(=O)Nc3ccccc3Cl)c2=O)cc1 [#7, 2,4-Dioxo-3-(4-methoxybenzyl)-N-(2-chlorophenyl)-1,2,3,4-tetrahydropyrimidine-5-carboxamide]
Growth Inhibition (relative inhibitory activity) (Med1-MB cells): *** | LDH Inhibition (relative inhibitory activity) (LDHA enzyme): ***

O=C(Nc1ccccc1)c1c[nH]c(=O)n(Cc2ccccc2F)c1=O [#1, 2,4-dioxo-N-phenyl-3-(2-fluorobenzyl)-1,2,3,4-tetrahydropyrimidine-5-carboxamide]
Growth Inhibition (relative inhibitory activity) (Med1-MB cells): *** | IC50 (Med1-MB cells; Mus musculus, 72 h, non-linear regression): ~29 µM | values times lower than those obtained with oxamate (Med1-MB cells; vs oxamate): approximately 700 times | LDH Inhibition (relative inhibitory activity) (LDHA enzyme): *** | inhibitory effect on LDHA enzymatic activity (LDHA enzyme): marked inhibitory effect | IC50 (Panc1 cells; Homo sapiens, PANC-1, Panc1 cells, 72 h, non-linear regression): ~23 µM | IC50 range, cell proliferation (Panc1 cells; Panc1 cells): within the micromolar range | concentration times lower than oxamate for comparable ability to reduce tumor growth (Panc1 cells; in vitro, vs oxamate): > 700 times | tumor growth in treated mice (Panc1 tumor xenograft): did not grow at all | tumor growth in treated mice (Panc1 tumor xenograft; listed as IPI/01.LF): significantly lower | weight of mice (Panc1 tumor xenograft; 20 mg/Kg, T=0 to T=17): unchanged | tumor luminescent light signal over time (Panc1 tumor xenograft; 20 mg/Kg, T=0 vs T=17 days, IVIS Lumina III): significant regression over time | tumor mass smaller in treated mice compared to controls at end of experiment (Panc1 tumor xenograft; 20 mg/Kg, end of experiment): 2.5 fold | mean volume of tumors at end of treatment compared to controls (Panc1 tumor xenograft; 20 mg/kg, end of treatment): significantly reduced

O=C(Nc1ccccc1F)c1c[nH]c(=O)n(Cc2ccc(F)cc2)c1=O [#3, 2,4-Dioxo-3-(4-fluorobenzyl)-N-(2-fluorophenyl)-1,2,3,4-tetrahydropyrimidine-5-carboxamide]
Growth Inhibition (relative inhibitory activity) (Med1-MB cells): ** | LDH Inhibition (relative inhibitory activity) (LDHA enzyme): **

O=C(Nc1cccc(Cl)c1)c1c[nH]c(=O)n(Cc2ccccc2)c1=O [#2, 2,4-Dioxo-3-benzyl-N-(3-chlorophenyl)-1,2,3,4-tetrahydropyrimidine-5-carboxamide]
Growth Inhibition (relative inhibitory activity) (Med1-MB cells): * | LDH Inhibition (relative inhibitory activity) (LDHA enzyme): *

NC(=O)C(=O)O [oxamate, reference compound]
concentration lowering in vitro proliferation (Med1-MB cells; 72 h): > 20 mM
